In article PMC7699524, “Assessing the Intestinal Permeability and Anti-Inflammatory Potential of Sesquiterpene Lactones from Chicory” (Nutrients, 2020):
Marks after values point to notes of the source that are not given here.

Legend:
Caco-2 cells = assay: Permeability across Caco-2 monolayer (apical concentration by LC-MS); settings: for % of Decrease in SL Concentration in the Apical Side (t = 4h) / SL conjugates with cysteine in the apical side after 4 h / Concentration of SL (Apical Side) t = 4 h / Concentration of SL (Apical Side) t = 0 h: Caco-2 monolayer; for % of Decrease in SL Concentration in the Apical Side (t = 4h): 10 µM apical, 4 h vs t = 0 h; for Concentration of SL (Apical Side) t = 4 h / Concentration of SL (Apical Side) t = 0 h: SL added at 10 µM apical; for Concentration of SL (Apical Side) t = 4 h: after 4 h; for Concentration of SL (Apical Side) t = 0 h: before experiment
Description: For intestinal permeability assessments of pure SLs, Caco-2 cells were seeded in 12 mm Transwell® inserts (polyester membrane, 0.4 μm pore size, Corning Costar Corp., NY, USA) at a density of 1.0 × 10^5 cell/cm^2. Cells were allowed to grow and differentiate to a confluent monolayer for 21 days postseeding with medium change three times per week. This mimics the apical and basolateral sides of the intestinal mucosa. Before the permeability assay, cells were washed with Hank’s balanced salt solution (HBSS) (Gibco, Life Technologies, Paisley, UK), and pure SLs in HBSS were added to the apical side for 4 h at the noncytotoxic concentration of 10 μM, while the basolateral well was replaced by HBSS. The fluorescent marker fluorescein (2.7 µM) was used as control, having been submitted to the same protocol as the SLs. Cells were submitted to an orbital shaking of 125 rpm (Ohaus, Shanghai, China), and samples from the basolateral side were collected after 15 min, 30 min, and then every hour until the end of the assay, and each time the retrieved volume was replaced by fresh HBSS to maintain sink conditions. After the 4 h assay, both apical and basolateral contents were collected, the cells were washed with PBS followed by culture medium, and culture medium was added to both compartments for 24 h to assess monolayer recovery. All samples were stored at −80 °C until LC-MS analysis.
Transepithelial electrical resistance (TEER) of all monolayers was monitored before and during experiments, and 24 h after the assay, to ensure their integrity using an EVOM™ voltmeter (WPI, Berlin, Germany). Before each experiment, TEER was measured and only monolayers with a TEER value higher than 500 Ω cm^2 were used. Experiments were done in triplicate.
Ultra High Performance Liquid Chromatography (UHPLC) separations were performed with a Dionex U3000 UHPLC coupled with a U3000 Photo Diode Array (PDA) and an LTQ-Orbitrap XL Mass Spectrometry (MS) system (Thermo-Fisher Ltd., Hemel Hempstead, UK). The MS and PDA systems were tuned and calibrated according to the manufacturers recommended procedures. The UHPLC was operated under Xcalibur and Chromeleon software (Thermo-Fisher Ltd. UK). A flow rate of 300 µL/min was applied, the column and guard (Synergi C18 Hydro-RP 80 Ä, 150 × 2.0 mm, 4 µm particle size; Phenomenex Ltd. U.K.) were maintained at a temperature of 30 °C. The solvent system compositions were, A: HPLC grade water (J.T. Baker, Scientific Chemical Supplies Ltd. UK), and solvent B: HPLC grade acetonitrile (J.T. Baker, Scientific Chemical Supplies Ltd. UK), both acidified with 0.1% MS grade formic acid (Ultima, Fisher Scientific, UK). A sample injection volume of 10 µL was employed in partial-loop mode. The gradient program was as follows: hold 2% B 0–2 min, 2–5% B 2–5 min, 5–45% B 5–25 min, 45–100% B 25–35 min, hold 100% B 35–38 min, 100–2% B 38–39 min, hold 2% B 39–44 min. Autosampler syringe and line washes were performed with 2:8 HPLC grade water: acetonitrile (J.T. Baker, Scientific Chemical Supplies Ltd., UK). The HPLC column eluent was first monitored by the U3000 PDA detector where spectra were collected in wavelength/absorbance mode from 200–600 nm. Additionally, three channel set points were employed, Channel A 210 nm, Channel B 260 nm, Channel C 320 nm. Spectra were collected with a filter bandwidth of 8 nm and wavelength step of 1 nm, the scan rate was 5 Hz.
The UHPLC eluent was next transferred to a Thermo LTQ-Orbitrap XL mass spectrometry system operated under Xcalibur (Thermo-Fisher Ltd. UK). For the first two minutes of analysis the UHPLC eluent was diverted to waste, from two to 39 min the eluent was directed to the MS detector, before being diverted back to waste between 39–44 min. Mass spectra were collected in centroid mode with a primary full scan event (m/z 100–1000) at a mass resolution of 30,000 (FWHM defined at m/z 400) within the Fourier Transform (FT) detector.

calcineurin-Crz1 pathway = assay: β-Galactosidase CDRE-lacZ yeast reporter assay of Crz1 activation; format: cell-based, S. cerevisiae; settings: Saccharomyces cerevisiae, MnCl2 3 mM activation, strain YAA5; for inhibition at 12.5 µM: read-out: Calcineurin-Crz1 Inhibition (%) ± SD, 12.5 µM
Description: Cultures at OD600= 0.5 ± 0.05 were diluted to OD600= 0.1 ± 0.01, transferred to 96-well microplate and challenged with the highest nontoxic concentration previously determined for each compound to investigate their putative inhibitory effect towards the calcineurin-responsive zinc finger (Crz1) activation. Measurements of β-galactosidase activity driven by the calcineurin-dependent response element (CDRE) regulated lacZ reporter gene allowed the quantitative assessment of the capacity of each compound to inhibit the activation of Crz1. FK506 (Cayman Chemicals, Ann Arbor, MI, USA) was used as a positive control at a final concentration of 12.5 μM. After 90 min of incubation with the respective compounds at 30 °C under orbital shaking, MnCl2 (Merck, Saint Louis, MO, USA) was added at a final concentration of 3 mM. After 90 min of incubation under the same conditions, OD600 of cultures were recorded, 10 μL of cell suspensions were transferred to a new 96-well plate followed by addition of 20 μL Y-PER cell lysis reagent (ThermoFisher Scientific), and the plates were incubated for 20 min at 37 °C without agitation. 240 μL of LacZ buffer (8.5 g/L Na2HPO4 (ROTH), 5.5 g/L NaH2PO4.H2O (Merck), 0.75 g/L KCl (Panreac), 0.246 g/L MgSO4.7H2O (Merck) containing […] o-nitrophenyl β-D-galactopyranoside (ONPG) (Sigma–Aldrich®—Poole, Dorset, UK) was added to each well, and plates were incubated at 30 °C for 2 h. The OD420 and OD550 were monitored using a Biotek Power Wave XS Microplate Spectrophotometer (Biotek® Instruments, Winooski, VT, USA). The results were expressed as Miller units (MU), applying the following equation, where V = volume of culture assayed in mL; t = reaction time in minutes: Miller unit = 1000 × (OD420 − 1.75 × OD550)/(t × V × OD600)(1)

yeast cells = assay: Yeast cell viability (Cell Titer Blue); format: cell-based, S. cerevisiae; settings: Cell Titer Blue assay
Description: Doses of SLs ranging from 12.5 μM to 100 μM for each compound were used in the yeast viability assays. Cultures obtained were diluted to a final OD600 = 0.025 ± 0.0025. The viability assays were performed in 96-wells microplates using 100 µL of diluted culture suspensions and 10 µL of Cell Titer Blue reagent (Promega, WI, USA) according to manufacturer’s instructions for 3 h at 30 °C. Fluorescence was measured in 30 min intervals at emission wavelength 580 nm using the Biotek Power Wave XS Microplate Spectrophotometer (Biotek® Instruments, Winooski, VT, USA).

[1] = Caco-2 apical side, conjugates estimated against calibration curves of parent SLs
[2] = LC-MS, apical side, t = 4 h, parent SLs added at 10 μM

Row | Apical Concentration t = 4 h (µM Equivalents to Parent SL) (Caco-2 cells; Caco-2) | Compound | Apical Concentration t = 4 h (µM Equivalents to Parent SL) (Caco-2 cells; [1]) | % of Decrease in SL Concentration in the Apical Side (t = 4h) (Caco-2 cells) | SL conjugates with cysteine in the apical side after 4 h (Caco-2 cells; LC-MS) | Concentration of SL (Apical Side) t = 4 h (Caco-2 cells) | Concentration of SL (Apical Side) t = 0 h (Caco-2 cells) [µM] | Peak Area (Average a.u.) (Caco-2 cells; [2]) | inhibition at 12.5 µM (calcineurin-Crz1 pathway) [%] | further results
1 |  | C=C1C(=O)O[C@@H]2[C@H]3C(CO)=CC(=O)C3=C(C)C[C@H](O)[C@@H]12 [Lactucin, lactucin] | 5.9 ± 0.5 µM Equivalents to Parent SL | 28.8 *** % | detected | 5.9 ± 0.5 µM | 8.3 ± 0.7 | 6.8 × 10^7 a.u. | 20 ± 14 | % of Decrease in SL Concentration in the Apical Side (t = 4h) (Caco-2 cells; listed as lactucin): ≈ 30%
2 | 27 ± 5.9 µM Equivalents to Parent SL | CC1=CCCC2(C)OC2C2OC(=O)C(CSCC(N)C(=O)O)C2CC1 (stereo not drawn) [Parthenolide-Cys] |  |  |  |  |  |  |  | 
3 | 2.9 ± 3.6 µM Equivalents to Parent SL | CC1=C2C(=O)C=C(CO)C2C2OC(=O)C(CSCC(N)C(=O)O)C2C(O)C1 (stereo not drawn) [Lactucin-Cys] |  |  |  |  |  |  |  | 
4 |  | C=C1C(=O)O[C@@H]2[C@H]3C(CO)=CC(=O)C3=C(C)C[C@H](OC(=O)Cc3ccc(O)cc3)[C@@H]12 [Lactucopicrin, lactucopicrin] | <LOQ | 100 ** % | detected | <LOQ | 12.4 ± 1.3 | 1.2 × 10^6 a.u. | 18 ± 9 | Concentration of SL (Apical Side) t = 4 h (Caco-2 cells; listed as lactucopicrin): LOQ
5 |  | CC1=C2C(=O)C=C(CO)C2C2OC(=O)C(C)C2C(OC(=O)Cc2ccc(O)cc2)C1 (stereo not drawn) [11β,13-dihydrolactucopicrin] |  | 29.9 * % | not detected | 4.9 ± 0.9 µM | 7.0 ± 1.2 |  | 26 ± 11 | 
6 |  | C=CC[C@@H]1/C=C(\C)C[C@H](C)C[C@H](OC)[C@H]2O[C@@](O)(C(=O)C(=O)N3CCCC[C@H]3C(=O)O[C@H](/C(C)=C/[C@@H]3CC[C@@H](O)[C@H](OC)C3)[C@H](C)[C@@H](O)CC1=O)[C@H](C)C[C@@H]2OC [FK506, reference compound] |  |  |  |  |  |  | 67 ± 13 | 
7 |  | C/C1=C\[C@H]2OC(=O)C(CSC[C@H](N)C(=O)O)[C@@H]2CC/C(C)=C/CC1 (stereo partly drawn) [Costunolide-Cys] | 95 ± 8.4 µM Equivalents to Parent SL |  |  |  |  | 3.1 × 10^8 a.u. |  | 
8 |  | C=C1C(=O)O[C@H]2[C@H]1CC/C(C)=C/CC[C@@]1(C)O[C@@H]21 [Parthenolide, parthenolide, reference compound] | <LOQ | 100 ** % | detected | <LOQ | 11.9 ± 2.0 |  | 20 ± 12 | Peak Area (Average a.u.) (Caco-2 cells; human, Caco-2, 4 h, 10 µM): 9.2 × 10^5 a.u.
9 |  | C=C1C(=O)O[C@@H]2/C=C(\C)CC/C=C(\C)CC[C@@H]12 [Costunolide] | <LOD | 100 ** % | detected | <LOD | 13.1 ± 1.8 |  |  | Highest nontoxic concentration in yeast (yeast cells): 6.25 µM; Concentration of SL (Apical Side) t = 4 h (Caco-2 cells; listed as costunolide): LOQ; inhibition at 6.25 µM (calcineurin-Crz1 pathway; read-out: Calcineurin-Crz1 Inhibition (%) ± SD, 6.25 µM): 18 ± 9%
10 | 17.8 ± 2.9 µM Equivalents to Parent SL | CC1=C2C(=O)C=C(CO)C2C2OC(=O)C(CSCC(N)C(=O)O)C2C(OC(=O)Cc2ccc(O)cc2)C1 (stereo not drawn) [Lactucopicrin-Cys] |  |  |  |  |  |  |  | 
